Where a SMILES comes first, the peptide text is derived from it. [ ]: non-standard residue; d: D form. Dip = N[C@H](C(=O)O)C(c1ccccc1)c1ccccc1
These compounds were tested against BTK (Homo sapiens, UniProt Q06187) (assay: biochemical). Settings: read-out: BTK inhibition (%), 0.75 uM BTK, […] probe 3l, 15 min preincubation.
BTK, sequence (Q06187 402-655 limits assumed): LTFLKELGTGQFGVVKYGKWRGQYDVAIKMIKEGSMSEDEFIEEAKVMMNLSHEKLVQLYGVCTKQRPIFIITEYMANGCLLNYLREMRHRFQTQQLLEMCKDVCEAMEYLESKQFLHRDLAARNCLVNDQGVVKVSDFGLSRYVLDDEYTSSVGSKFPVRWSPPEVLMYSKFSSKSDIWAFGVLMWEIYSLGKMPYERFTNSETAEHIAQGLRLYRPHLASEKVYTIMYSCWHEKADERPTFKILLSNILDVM
With `CO[C@H]1C[C@@H]2CC[C@@H](C)[C@@](O)(O2)C(=O)C(=O)N2CCCC[C@H]2C(=O)O[C@H]([C@H](C)C[C@@H]2CC[C@@H](OCCO)[C@H](OC)C2)CC(=O)[C@H](C)/C=C(\C)[C@@H](O)[C@@H](OC)C(=O)[C@H](C)C[C@H](C)/C=C/C=C/C=C/1C` [PCM-0214563] the inhibition at 10 µM was -12.4%.
Compound `NCCCC[C@H](NC(=O)[C@@H](NC(=O)[C@H](Cc1c[nH]c2ccccc12)NC(=O)[C@H](CCCCN)NC(=O)[C@H](CCCCN)NC(=O)[C@H](Cc1c[nH]c2ccccc12)NC(=O)[C@H](Cc1c[nH]c2ccccc12)NC(=O)[C@H](CCCCN)NC(=O)[C@@H](N)CCCCN)C(c1ccccc1)c1ccccc1)C(N)=O` [PCM-0215623] (H-KKWWKKW[Dip]K-NH2) has an inhibition at 10 µM of -11.1%.
Work on `CCCCC[C@H](O)/C=C/[C@H]1[C@H](O)CC(=O)[C@@H]1C/C=C\CCCC(=O)O` [PCM-0215185] yielded an inhibition at 10 µM of -11.7%.
In the case of `C=C1C[C@@]23CC[C@H]4[C@@](C)(CCC[C@@]4(C)C(=O)O)[C@@H]2CC[C@]1(O[C@@H]1O[C@H](CO)[C@@H](O)[C@H](O)[C@H]1O[C@@H]1O[C@H](CO)[C@@H](O)[C@H](O)[C@H]1O)C3` [PCM-0216480], the inhibition at 10 µM was -3.9%.
`CN(C)C(=O)COC(=O)Cc1ccc(OC(=O)c2ccc(N=C(N)N)cc2)cc1` [PCM-0095541] was tested, and the inhibition at 10 µM was -6.2%.
`Nc1nc(CC(=O)Nc2ccc(CCNC[C@H](O)c3ccccc3)cc2)cs1` [PCM-0095557] was tested, and the inhibition at 10 µM was 3.9%.
`CN(C)C(=O)CCSC(SCCC(=O)O)c1cccc(/C=C/c2ccc3ccc(Cl)cc3n2)c1` (centres unmarked) [PCM-0215726] showed an inhibition at 10 µM of 10.8%.
Compound `C[C@H](NC(=O)[C@@H](O)c1cc(F)cc(F)c1)C(=O)N[C@@H]1C(=O)N(C)c2ccccc2-c2ccccc21` [PCM-0095417] has an inhibition at 10 µM of 6.2%.
For `O=P(O)(O)C(Cl)(Cl)P(=O)(O)O` [PCM-0065307], the inhibition at 10 µM was -23.8%.
Work on `CN(C)CCCCC(=O)Nc1ccc(NC(=S)NC(=O)c2ccc(C(C)(C)C)cc2)cc1` [PCM-0214793] yielded an inhibition at 10 µM of 7%.
In the case of `CN(C)[C@@H]1C(=O)C(C(N)=O)=C(O)[C@@]2(O)C(=O)C3=C(O)c4c(O)cccc4[C@@](C)(O)[C@H]3C[C@@H]12` [PCM-0085873], the inhibition at 10 µM was 6.2%.
Work on `O=[N+]([O-])c1ccc(S(=O)(=O)N2CCN(c3ccnc4cc(Cl)ccc34)CC2)c([N+](=O)[O-])c1` [PCM-0215531] yielded an inhibition at 10 µM of -12.4%.
`CCCCCOC(=O)Nc1nc(=O)n([C@@H]2O[C@H](C)[C@@H](O)[C@H]2O)cc1F` [PCM-0094987] showed an inhibition at 10 µM of -11.7%.
`OC[C@H]1O[C@@H](O[C@@H]2[C@@H](CO)O[C@](O)(CO)[C@H]2O)[C@H](O)[C@@H](O)[C@H]1O` [PCM-0214810] gave an inhibition at 10 µM of 13.2%.
Work on `O=c1nc(N2CCOCC2)oc2c(-c3cccc4c3sc3ccccc34)cccc12` [PCM-0215826] yielded an inhibition at 10 µM of -1.4%.
Compound `O=C(O)CC(O)C(=O)O` (centres unmarked) [PCM-0216336] has an inhibition at 10 µM of -11.6%.
In the case of `CNC[C@H](O)[C@@H](O)[C@H](O)[C@H](O)CO` [PCM-0086373], the inhibition at 10 µM was -10.1%.
With `C[C@]12C[C@@H](O)[C@@H]3C[C@@]1(O[C@@H]1O[C@H](CO)[C@@H](O)[C@H](O)[C@H]1O)[C@]3(COC(=O)c1ccccc1)C(=O)O2` [PCM-0216349] the inhibition at 10 µM was -12.4%.
For `COc1cc2ncnc(Nc3ccc(F)c(Cl)c3)c2cc1O` [PCM-0216130], the inhibition at 10 µM was 5.4%.
`O=C(O)c1ccc(-c2ccc(/C=C3\SC(=S)N(Cc4ccccc4)C3=O)o2)cc1` [PCM-0215715] was tested, and the inhibition at 10 µM was 11.6%.
Work on `O=C(O)c1ccc2c(c1)nc(Nc1cccc(Cl)c1)c1ccncc12` [PCM-0095287] yielded an inhibition at 10 µM of 13.1%.
`CCC(=O)Nc1cccc(Oc2nc(Nc3ccc(N4CCN(C)CC4)cc3OC)ncc2Cl)c1` [PCM-0095726] gave an inhibition at 10 µM of -2.1%.
For `OC1CCC(Oc2cccc3cnc(Nc4ccc5nc[nH]c5c4)nc23)CC1` (centres unmarked) [PCM-0215798], the inhibition at 10 µM was 66.2%.
Work on `Fc1ccc(Cn2c(Cl)nc3ccccc32)cc1` [PCM-0216108] yielded an inhibition at 10 µM of -52.5%.
In the case of `C[C@@H]1O[C@@H](O[C@@H]2[C@@H](O)[C@H](OCCc3ccc(O)c(O)c3)O[C@H](COC(=O)/C=C/c3ccc(O)c(O)c3)[C@H]2O)[C@H](O)[C@H](O)[C@H]1O` [PCM-0216411], the inhibition at 10 µM was -11.6%.
Work on `COc1cc(O)cc(O)c1C(=O)C=Cc1ccccc1` [PCM-0214685] yielded an inhibition at 10 µM of 12.5%.
In the case of `O=C(O)CCCN1CCC(O[C@@H](c2ccc(Cl)cc2)c2ccccn2)CC1` [PCM-0214802], the inhibition at 10 µM was -17.9%.
For `OC1CCC(Nc2ncc3nc(Nc4c(F)cc(F)cc4F)n([C@H]4CCOC4)c3n2)CC1` (some centres unmarked) [PCM-0214575], the inhibition at 10 µM was -10.3%.
With `O=S1(=O)CCN(CN2CCS(=O)(=O)NC2)CN1` [PCM-0215138] the inhibition at 10 µM was 0%.
With `CC(C)c1ccc(NC(=O)Cn2cnc3c2c(=O)n(C)c(=O)n3C)cc1` [PCM-0095403] the inhibition at 10 µM was -12.5%.
`CCS(=O)(=O)CCn1c([N+](=O)[O-])cnc1C` [PCM-0086486] gave an inhibition at 10 µM of -4.7%.
`CN[C@@H](C)C(=O)N[C@H](C(=O)N1CCC[C@H]1C(=O)Nc1snnc1-c1ccccc1)C1CCCCC1` [PCM-0215217] gave an inhibition at 10 µM of -17%.
In the case of `COc1ccccc1N1CCN(CCCNc2cc(=O)n(C)c(=O)n2C)CC1` [PCM-0064976], the inhibition at 10 µM was -0.8%.
For `OC[C@@H](O)CN1CCN(c2ccccc2)CC1` [PCM-0214752], the inhibition at 10 µM was -22.8%.
`COc1ccc(C(=O)O)cc1O` [PCM-0215975] showed an inhibition at 10 µM of -13.9%.
For `COC1CCC(N2C(=O)CNc3ncc(-c4ccc(C(C)(C)O)nc4)nc32)CC1` (centres unmarked) [PCM-0215601], the inhibition at 10 µM was 15.9%.
With `CCNc1nc(Nc2cc(F)c(C(=O)N3CCOCC3)cc2OC)ncc1C(F)(F)F` [PCM-0215337] the inhibition at 10 µM was -9%.
`COC(=O)C[C@](O)(CCCC(C)(C)O)C(=O)O[C@@H]1C(OC)=C[C@]23CCCN2CCc2cc4c(cc2[C@H]13)OCO4` [PCM-0216341] showed an inhibition at 10 µM of 4.6%.
In the case of `Cn1c(-c2ccccc2C(F)(F)F)nnc1C12CCC(c3noc(C4CC(F)(F)C4)n3)(CC1)CC2` [PCM-0215687], the inhibition at 10 µM was -17%.
For `O=C(c1ccc(F)cc1)C1CCN(CCn2c(=O)[nH]c3ccccc3c2=O)CC1` [PCM-0065006], the inhibition at 10 µM was 0%.
For `Nc1ccc(C(=O)NCC(=O)O)cc1` [PCM-0086407], the inhibition at 10 µM was 28%.
Work on `Cc1ccc(CN(CC(O)COc2cccc3[nH]ccc23)C(C)(C)C)cc1` (centres unmarked) [PCM-0216011] yielded an inhibition at 10 µM of 6.9%.
Work on `O=C1N=C(O)CN1/N=C/c1ccc(-c2ccc([N+](=O)[O-])cc2)o1` [PCM-0086748] yielded an inhibition at 10 µM of 28%.
`c1ccc(CNCc2ccc(CN3CCCNCCNCCCNCC3)cc2)nc1` [PCM-0215781] showed an inhibition at 10 µM of -2.6%.
`COc1ccc(-c2oc3c(CC=C(C)C)c(O)cc(O)c3c(=O)c2O[C@@H]2O[C@@H](C)[C@H](O)[C@@H](O)[C@H]2O)cc1` [PCM-0214963] was tested, and the inhibition at 10 µM was 6.2%.
In the case of `CC(C)N(CCNC(=O)CN1CCCC1=O)C(C)C` [PCM-0095202], the inhibition at 10 µM was 1.6%.
Work on `CC[N+](CC)(CC)CCOc1cccc(OCC[N+](CC)(CC)CC)c1OCC[N+](CC)(CC)CC` [PCM-0065294] yielded an inhibition at 10 µM of 9.3%.
`CC(C)(O)CC(=O)NCCn1ccc2ncnc(Nc3ccc(Oc4cccc(C(F)(F)F)c4)c(Cl)c3)c21` [PCM-0095364] gave an inhibition at 10 µM of 73.8%.
Work on `Clc1ccc(C2(c3ccc(-c4cn[nH]c4)cc3)CCNCC2)cc1` [PCM-0095120] yielded an inhibition at 10 µM of 6.9%.
In the case of `Cc1c(Nc2ncccc2C(=O)O)cccc1C(F)(F)F` [PCM-0086423], the inhibition at 10 µM was -9%.
`CC(=O)c1cc2c(o1)C(=O)c1ccccc1C2=O` [PCM-0215544] showed an inhibition at 10 µM of -0.8%.
Work on `CC(=O)OCC(=O)[C@@]12OC(C)(C)O[C@@H]1C[C@H]1[C@@H]3C[C@H](F)C4=CC(=O)C=C[C@]4(C)[C@@]3(F)[C@@H](O)C[C@@]12C` [PCM-0214700] yielded an inhibition at 10 µM of 19.3%.
Compound `C[C@@H]1O[C@@H](OC[C@H]2O[C@@H](Oc3cc(O)c4c(c3)O[C@H](c3ccc(O)c(O)c3)CC4=O)[C@H](O)[C@@H](O)[C@@H]2O)[C@H](O)[C@H](O)[C@H]1O` [PCM-0216467] has an inhibition at 10 µM of 10%.
With `O=C(O)CC(C(=O)O)n1c(O)c(C2=c3cc(Br)ccc3=NC2=O)sc1=S` (centres unmarked) [PCM-0216114] the inhibition at 10 µM was 3.1%.
`Cn1cc(CNCC2CCN(c3ncc(C(=O)NO)cn3)CC2)c2ccccc21` [PCM-0095073] was tested, and the inhibition at 10 µM was -11.7%.
For `Cn1c(=O)cc(N2CCC[C@@H](N)C2)n(Cc2cc(F)ccc2C#N)c1=O` [PCM-0095818], the inhibition at 10 µM was 15.4%.
`CC(C)(C)OC(=O)Nc1ccc(-c2cc(C(=O)NCCCCCCC(=O)NO)no2)cc1` [PCM-0215407] showed an inhibition at 10 µM of 20.1%.
Compound `COc1cc([C@H]2OC[C@H]3[C@@H]2CO[C@@H]3c2ccc(O[C@@H]3O[C@H](CO)[C@@H](O)[C@H](O)[C@H]3O)c(OC)c2)ccc1O[C@@H]1O[C@H](CO)[C@@H](O)[C@H](O)[C@H]1O` [PCM-0216471] has an inhibition at 10 µM of -6.9%.
With `CCOCc1nc2c(N)nc3ccccc3c2n1CC(C)(C)O` [PCM-0215576] the inhibition at 10 µM was 15.2%.
For `C[N+](C)(C)CCCCCC[N+](C)(C)C` [PCM-0065242], the inhibition at 10 µM was -14.5%.
Compound `OC(Cn1cncn1)(Cn1cncn1)c1ccc(F)cc1F` [PCM-0086230] has an inhibition at 10 µM of 9.3%.
Compound `C=CC(=O)Nc1cc(Nc2nccc(-n3cc(CN(C)C)c(-c4ccccc4)n3)n2)c(OC)cc1N1CCOCC1` [PCM-0216259] has an inhibition at 10 µM of 11.1%.
`Nc1ncnc2c1C(=O)N(c1ccc(C3CCC(CC(=O)O)CC3)cc1)CCO2` (centres unmarked) [PCM-0095810] gave an inhibition at 10 µM of 3.1%.
With `CC1(COc2ccc3c(c2)ncn3-c2ccc3cccc(N4CCC(N)CC4)c3n2)COC1` [PCM-0095459] the inhibition at 10 µM was 6.2%.
`Nc1ncnc2c1ncn2[C@@H]1O[C@H](COP(=O)(O)O)[C@@H](O)[C@H]1O` [PCM-0086027] showed an inhibition at 10 µM of -23.2%.
With `Oc1cc(O)c2c(c1)OC(c1ccc(O)c(O)c1)C(OC1(c3ccc(O)c(O)c3)Oc3cc(O)cc(O)c3C(O)C1O)C2` (centres unmarked) [PCM-0215931] the inhibition at 10 µM was 85.7%.
`O=C(Cc1ccc(-c2ccc(OCCN3CCOCC3)cc2)cn1)NCc1ccccc1` [PCM-0095410] gave an inhibition at 10 µM of -2.8%.
`COc1ccc([C@@H]2CC(=O)c3c(O)cc(O[C@@H]4O[C@H](CO[C@@H]5O[C@@H](C)[C@H](O)[C@@H](O)[C@H]5O)[C@@H](O)[C@H](O)[C@H]4O)cc3O2)cc1` [PCM-0216487] showed an inhibition at 10 µM of -3.1%.
`NC(=O)[C@H](CCCN=C(N)CCl)NC(=O)c1ccccc1` [PCM-0215816] showed an inhibition at 10 µM of -5.5%.
`c1ccc2c(c1)[I+]c1ccccc1-2` [PCM-0215888] showed an inhibition at 10 µM of -0.7%.
Compound `O=C(Cn1nnc(-c2ccncc2)c1-c1ccccc1)Nc1ccc(-c2ccccc2)cn1` [PCM-0216012] has an inhibition at 10 µM of 39.4%.

From publication PMC8041284, “Tunable Methacrylamides for Covalent Ligand Directed Release Chemistry” (Journal of the American Chemical Society, 2021)
